The source of these data is patent US20110086759A1, “CHEMICAL COMPOUNDS” (SYNGENTA CROP PROTECTION, INC., priority 2007, published 2011).

Holding throughout (assay type): in vivo
The subject of test [1] is Echinochloa crus-galli (ECHCG). Nature of the test: Pre-emergence biological efficacy, glasshouse pot test. The note with it: 312 h, pre-emergence, rate 1,000 g/ha, evaluated after 13 days (100=total damage to plant; 0=no damage), read-out: Percentage damage caused to weed species, ECHCG. The gist of the method:
(§1)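 Test compound, formulated in acetone/water (50:50) containing 0.5% Tween 20 and diluted into an aqueous spray, was applied at 1000 or 250 g/ha to pots sown one day earlier. Injury was rated after 13 days, 100 meaning total damage.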

Test [2] relates to Amaranthus retoflexus (AMARE). Described as above. The settings on record: Amaranthus retroflexus, 312 h; pre-emergence, rate 1,000 g/ha, evaluated after 13 days (100=total damage to plant; 0=no damage); read-out: Percentage damage caused to weed species, AMARE. The gist of the method:
as §1

Test [3] relates to Alopecurus myosuroides (ALOMY). The description is as above. The note with it: 312 h, pre-emergence, rate 1,000 g/ha, evaluated after 13 days (100=total damage to plant; 0=no damage), read-out: Percentage damage caused to weed species, ALOMY. A digest of the protocol: as §1
Test [4] deals with Ipomea hederaceae (IPOHE). Described as above. The note with it: Ipomoea hederacea, 312 h; pre-emergence, rate 1,000 g/ha, evaluated after 13 days (100=total damage to plant; 0=no damage); read-out: Percentage damage caused to weed species, IPOHE. A digest of the protocol:
as §1

The test system of test [5] is Solanum nigrum (SOLNI). The description is as above. The settings on record: 312 h, pre-emergence, rate 1,000 g/ha, evaluated after 13 days (100=total damage to plant; 0=no damage), read-out: Percentage damage caused to weed species, SOLNI. A digest of the protocol:
as §1

Test [6] relates to Setaria faberi (SETFA). The test is described as above. The settings on record: 312 h, pre-emergence, rate 1,000 g/ha, evaluated after 13 days (100=total damage to plant; 0=no damage), read-out: Percentage damage caused to weed species, SETFA. A digest of the protocol: as §1
The subject of test [7] is Echinochloa crus-galli (ECHCG). Nature of the test: Post-emergence biological efficacy, glasshouse pot test. The note with it: 312 h, Rate 1,000 g/ha, post-emergence spray, evaluated after 13 days (100=total damage to plant; 0=no damage to plant), read-out: Percentage damage caused to weed species, post-emergence, ECHCG. The gist of the method:
(§2)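 Plants were sown in standard soil and grown 8 days in a glasshouse (24/16° C. day/night, 14 hours light, 65% humidity), then sprayed post-emergence at 1000 or 250 g/ha from acetone/water (50:50) with 0.5% Tween 20. Damage was scored visually after 13 days (0 = none, 100 = total).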

Test [8] relates to Amaranthus retoflexus (AMARE). Described as above. The settings on record: Amaranthus retroflexus, 312 h; Rate 1,000 g/ha; post-emergence spray; evaluated after 13 days (100=total damage to plant; 0=no damage to plant); read-out: Percentage damage caused to weed species, post-emergence, AMARE. The gist of the method:
as §2

Test [9] has as its system Alopecurus myosuroides (ALOMY). The test is described as above. The note with it: 312 h, Rate 1,000 g/ha, post-emergence spray, evaluated after 13 days (100=total damage to plant; 0=no damage to plant), read-out: Percentage damage caused to weed species, post-emergence, ALOMY. A digest of the protocol:
as §2

Test [10] deals with Ipomea hederaceae (IPOHE). Described as above. The settings on record: Ipomoea hederacea, 312 h; Rate 1,000 g/ha; post-emergence spray; evaluated after 13 days (100=total damage to plant; 0=no damage to plant); read-out: Percentage damage caused to weed species, post-emergence, IPOHE. A digest of the protocol:
as §2

In test [11] the test system is Solanum nigrum (SOLNI). The description is as above. The note with it: 312 h, Rate 1,000 g/ha, post-emergence spray, evaluated after 13 days (100=total damage to plant; 0=no damage to plant), read-out: Percentage damage caused to weed species, post-emergence, SOLNI. A digest of the protocol: as §2
Test [12] concerns Setaria faberi (SETFA). The description is as above. The note with it: 312 h, Rate 1,000 g/ha, post-emergence spray, evaluated after 13 days (100=total damage to plant; 0=no damage to plant), read-out: Percentage damage caused to weed species, post-emergence, SETFA. A digest of the protocol:
as §2

For the molecule `COC(=O)c1nc(-c2ccc(Cl)c(F)c2)nc(NCc2ccco2)c1Cl` [Compound 222-48, 5-Chloro-2-(4-chloro-3-fluorophenyl)-4-(furan-2-ylmethyl-amino)-6-methoxycarbonyl-pyrimidine], the pest or weed control at 1000 g/ha in [1] amounted to 50%; in test [2], 100%; in [3] it was 30%; in test [4], 70%; with Solanum nigrum (SOLNI) [5], 100%; in the test on Setaria faberi (SETFA) [6], 20%. Further, the pest or weed control at 1000 g/ha worked out at 40% in test [7]; 100% in test [8]; 30% in [9]; 80% in test [10]; 90% in the test with Solanum nigrum (SOLNI) [11]; 40% with Setaria faberi (SETFA) [12].

As to `COC(=O)c1nc(-c2ccc(Cl)c(F)c2Cl)nc(NCc2ccco2)c1Cl` [Compound 224-48, 5-Chloro-2-(2,4-dichloro-3-fluorophenyl)-4-(furan-2-ylmethyl-amino)-6-methoxy-carbonylpyrimidine], the pest or weed control at 1000 g/ha was 0% in test [1]; 100% in test [2]; 60% in [3]; 70% in test [4]; 90% in the test on Solanum nigrum (SOLNI) [5]; 50% in the test with Setaria faberi (SETFA) [6]. Moreover, the pest or weed control at 1000 g/ha in [7] came out at 40%; in [8], 100%; in test [9] it was 60%; in test [10], 70%; in the test with Solanum nigrum (SOLNI) [11] it was 90%; in the test with Setaria faberi (SETFA) [12], 80%.

For the molecule `COC(=O)c1nc(-c2ccc(Cl)c(F)c2F)nc(NCc2ccco2)c1Cl` [Compound 225-48, 5-Chloro-2-(4-chloro-2,3-difluorophenyl)-4-(furan-2-ylmethyl-amino)-6-methoxy-carbonylpyrimidine], the pest or weed control at 1000 g/ha came out at 30% in test [1]; 100% in test [2]; 60% in test [3]; 70% in test [4]; 90% in the test with Solanum nigrum (SOLNI) [5]; 80% in the test with Setaria faberi (SETFA) [6]. Further, the pest or weed control at 1000 g/ha in [7] worked out at 60%; in test [8], 100%; in test [9], 60%; in test [10], 90%; with Solanum nigrum (SOLNI) [11], 90%; in the test on Setaria faberi (SETFA) [12] it was 80%.

Turning to `COC(=O)c1nc(-c2ccc(Cl)c(Cl)c2F)nc(NCc2ccco2)c1Cl` [Compound 226-48, 5-Chloro-2-(3,4-dichloro-2-fluorophenyl)-4-(furan-2-ylmethyl-amino)-6-methoxy-carbonylpyrimidine], the pest or weed control at 1000 g/ha in test [1] was determined as 30%; in test [2] it was 100%; in test [3], 50%; in test [4] it was 30%; with Solanum nigrum (SOLNI) [5] it was 100%; in the test on Setaria faberi (SETFA) [6], 40%. Moreover, the pest or weed control at 1000 g/ha in [7] amounted to 60%; in test [8], 100%; in test [9] it was 50%; in test [10], 60%; in the test with Solanum nigrum (SOLNI) [11] it was 90%; in the test with Setaria faberi (SETFA) [12], 80%.

As for `COC(=O)c1nc(-c2cc(Cl)c(Cl)cc2Cl)nc(NCc2ccco2)c1Cl` [Compound 228-48, 5-Chloro-4-(furan-2-ylmethylamino)-6-methoxycarbonyl-2-(2,4,5-trichloro-phenyl)pyrimidine], the pest or weed control at 1000 g/ha in test [1] is 0%; in [2] it was 30%; in test [3], 0%; in test [4], 0%; with Solanum nigrum (SOLNI) [5], 0%; in the test on Setaria faberi (SETFA) [6], 0%. Further, the pest or weed control at 1000 g/ha in [7] was 0%; in test [8], 70%; in test [9] it was 20%; in test [10], 10%; in the test on Solanum nigrum (SOLNI) [11] it was 30%; with Setaria faberi (SETFA) [12], 20%.

As for `COC(=O)c1nc(-c2ccc(Cl)c(OC)c2)nc(NCc2ccco2)c1Cl` [Compound 229-48, 5-Chloro-2-(4-chloro-3-methoxyphenyl)-4-(furan-2-ylmethyl-amino)-6-methoxy-carbonylpyrimidine], the pest or weed control at 1000 g/ha in [1] is 0%; in test [2], 100%; in test [3], 10%; in [4], 0%; in the test with Solanum nigrum (SOLNI) [5], 90%; in the test on Setaria faberi (SETFA) [6], 30%. The pest or weed control at 1000 g/ha was 30% in [7]; 100% in test [8]; 10% in [9]; 30% in test [10]; 80% in the test with Solanum nigrum (SOLNI) [11]; 60% with Setaria faberi (SETFA) [12].

With `COC(=O)c1nc(-c2ccc(Cl)c(C(F)(F)F)c2F)nc(NCc2ccco2)c1Cl` [Compound 230-48, 5-Chloro-2-(4-chloro-2-fluoro-3-trifluoro-methylphenyl)-4-(furan-2-ylmethyl-amino)-6-methoxy-carbonylpyrimidine], the pest or weed control at 1000 g/ha is 20% in [1]; 70% in [2]; 30% in [3]; 50% in test [4]; 70% in the test on Solanum nigrum (SOLNI) [5]; 50% in the test on Setaria faberi (SETFA) [6]. Also, the pest or weed control at 1000 g/ha came out at 90% in test [7]; 100% in test [8]; 30% in [9]; 60% in test [10]; 80% in the test on Solanum nigrum (SOLNI) [11]; 70% in the test on Setaria faberi (SETFA) [12].

Regarding `COC(=O)c1nc(-c2ccc(Cl)c(Cl)c2Cl)nc(NCc2ccco2)c1Cl` [Compound 231-48, 5-Chloro-4-(furan-2-ylmethylamino)-6-methoxycarbonyl-2-(2,3,4-trichloro-phenyl)pyrimidine], the pest or weed control at 1000 g/ha is 30% in [1]; 100% in [2]; 40% in [3]; 10% in [4]; 40% with Solanum nigrum (SOLNI) [5]; 20% with Setaria faberi (SETFA) [6]. The pest or weed control at 1000 g/ha stood at 30% in [7]; 100% in [8]; 50% in [9]; 70% in [10]; 80% in the test with Solanum nigrum (SOLNI) [11]; 70% with Setaria faberi (SETFA) [12].
